Experimental data from US9456589B2, “Elasmobranch-repelling compounds and methods of use” (priority 2005, dated 2016).
“And” between values parts separate entries of the source, which are not always exact repeats. Equal values may be shown once. “Also recorded” adds a separate entry of the source. Read-outs that look alike come from different tables or passages of the source.

Experiments:
Type in all cases: in vivo
[1] = test system: juvenile lemon and nurse sharks; assay: Tonic immobility, Micropipette Assay, summary over species; conditions: for Micropipette Y (termination of tonic immobility), trials of trials: oral dose; for screening result: lemon and nurse sharks
Description: (§1) One bioassay used to observe and measure flight response is the tonic immobility test. Tonic immobility is a state of paralysis that typically occurs when a shark is subject to inversion of its body along the longitudinal axis. This state is called “tonic,” and the shark can remain in this state for up to 15 minutes thereby allowing researchers to observe effects of chemical repellents. The “tonic” state of the shark is first established by releasing seawater in proximity to the “tonic” shark with the same delivery instrument and at the same distance as a “test” repellent compound will be released. Some controls are released with a high flow rate (30 mL/sec) in order to establish that sharks are not awakened by a jet of fluid over their noses. Once behavioral controls are established, a compound or composition that may have a repelling effect is delivered to the shark. If the compound or composition engenders a flight response, the shark will awaken from the tonic state and rapidly attempt to flee the delivered repellent. Using this tonic immobility bioassay researches can quantify the strength of a repellent effect.
A fourth method of delivery was called the “Micropipette Assay” method of delivery. In this method, a very small dose (fraction of a mL) of a test substance was delivered directly into a shark's mouth. […] A response, such as a cough or other notable action of the shark, was usually noted when effective gustatory repellents were delivered directly into a shark's mouth while in tonic immobility.
The Micropipette Assay method has not proven to be a particularly effective method of assaying for a flight response in elasmobranchs. The Micropipette Assay method is, nevertheless, an excellent method for specifying that a gustatory response has occurred. It is effective for specifying a gustatory response because the micropipette delivery method allows direct delivery of an entire bolus of test substance into the mouth of the shark being tested.
An oral dose of no more than 400 microliters was then delivered by micropipette into the mouth of a juvenile nurse shark. Tonic immobility was terminated. For each derivative of butyric acid and each naturally occurring acid listed in Table 9, a first micropipette assay was performed on a juvenile lemon shark with no more than 100 microliters of test acid in an oral dose. A second micropipette assay was then performed on a juvenile nurse shark with no more than 400 microliters of test acid in an oral dose. In each test, tonic immobility was terminated.
In a first set of studies on the effectiveness of carboxylic acids as elasmobranch repellents, each tested substance was subjected to the following protocol. […] An oral dose of no more than 400 microliters was then delivered by micropipette into the mouth of a juvenile nurse shark. Tonic immobility was terminated. […] The data evidences the gustatory repelling activity of carboxylic acids.

sharks (species pooled) = assay: Tonic immobility, total of delivery methods not including Micropipette assays; conditions: species and delivery methods pooled
Description: as §1
Table 1, which summarizes the data in Tables 14 and 15, evidences the gustatory repellent characteristics of methylbutanals. In 35 of 36 assays (combining columns “Y” and “R” under the column labeled “Total (Not including Micropipette Assays)” to arrive at a 97% effectiveness rate), including assays on lemon, nurse, tiger and blacktip sharks, the gustatory repellent activity of 3-methylbutanal was established. In 81% of assays, tonic immobility was fully terminated. […] In only a single assay did a shark not respond to treatment with 3-methylbutanal.

[2] = test system: sharks (lemon, nurse, blacknose, blacktip pooled); assay: Tonic immobility, Syringe Assay, summary over species
Description: as §1
A second delivery method called the “Syringe Assay” method delivered a dose of 60 mL or more of a test chemical repellent from at least one foot, and up to as many as five feet, from a shark. The distance of delivery was determined based on the strength of the water current in the direction of the shark. Time from delivery of the test substance until response was observed, measured and recorded. The “Syringe” method allows a researcher to observe how a diffusing and diluting cloud of test chemical repellent affects the shark's behavior when the shark encounters the delivered cloud of test substance. The “Syringe” method requires relatively large doses because of the diffusion of the cloud over time and distance. Time from delivery to response is related to the size of the bolus delivered from the syringe, distance of the shark from the syringe and water current.
In the Syringe assay about 60 mL or more of valeraldehyde was delivered from one to as many as five feet from the shark depending on the water current. […] Time from delivery to response was related to the size of the bolus delivered from the syringe, distance of the shark from the syringe and water current.

[3] = test system: sharks (lemon, nurse, tiger pooled); assay: Tonic immobility, Hd Syringe Assay, summary over species; conditions: for lowest volume of repellent that terminated tonic immobility: Hd Syringe, lemon and nurse sharks; for Hd-Syringe Y (termination of tonic immobility), trials of trials: species pooled
Description: as §1
In Hd-Syringe Assays, the 3-methylbutanal was delivered to the shark's mouth and nares using a 3 mL hypodermic syringe fitted with a 22 gauge needle. The needle was held within 3 inches of the shark's mouth and the test repellent was slowly released from the syringe with a very fine plume in the water column. Any response was denoted. If a response occurred during a measurable time after delivery of the test chemical, the time between delivery and response was noted. If a response occurred immediately or the response occurred before a measurable time could be established, no time to response was noted.

[4] = test system: sharks (lemon, nurse, blacktip, tiger, blacknose pooled); assay: Tonic immobility, Syringe 3/5/10 Assay, summary over species
Description: as §1
In the tonic immobility studies disclosed herein, several different methods were employed for delivery of repelling compounds. A first method for delivery of chemical repellent in tonic immobility studies employed a “Syringe 3/5/10 Assay” method. The “Syringe 3/5/10 Assay” method is so named because a test repellent is delivered to a shark from a distance of about “3” inches with a bolus of about “5” mL with a response to the test repellent considered positive if the shark reacts with a change in behavior within less than about “10” seconds from the time of delivery.
The “3/5/10 Syringe Assay” as employed herein delivered a dose of 5-6 mL of a test chemical repellent from a syringe fixed with a needle having a gauge of about 22 from a distance at least 3 inches in front of a shark. Because the test chemical repellent was delivered at a distance from the shark's nares and mouth, a cloud of test chemical repellent was dispersed over the shark within the water column. The dispersed test repellent was subject to water current direction, dispersion and dilution. As a result, a flight response within 10 seconds was considered a positive repellency response. […] Time from delivery to response is related to the size of the bolus delivered from the syringe, distance of the shark from the syringe and water current.
In Syringe 3/5/10 Assays, 5-6 mL of 3-methylbutanal was delivered at least 3 inches in front of the shark's mouth. A cloud of the repellent dispersed over the shark within the water column. […] As noted above, because the dispersion of the chemical repellent upon delivery is affected by volume of repellent, water current, and other factors, the time between delivery and response was not correlatable with the potency of the repellent.

[5] = juvenile lemon and nurse sharks

SMILES	Micropipette Y (termination of tonic immobility), trials of trials [1, 5]	screening result [1]	Total (Not including Micropipette assays / Effective Delivery Methods) Y, trials of trials (sharks (species pooled))	Syringe Y (termination of tonic immobility), trials of trials [2]	also measured
O=C(O)/C=C/c1ccccc1 [trans-Cinnamic acid]	2/2				
O=C(O)CC(O)C(=O)O (stereo not shown) [Hydroxysuccinic Acid]	2/2				
CC(C)C(C)C(=O)O (stereo not shown) [2,3-Dimethylbutyric Acid]	2/2	repellents			
CCCCCC=O [Capronaldehyde, capronaldehyde]			1/1	1/1	Total Y, percent of trials (sharks (species pooled)): 100%
CCC=O [Propionaldehyde, propionaldehyde]			4/4	4/4	Total Y, percent of trials (sharks (species pooled)): 100%; Syringe Y (termination of tonic immobility), trials of trials ([2]; listed as propionaldehyde): All resulted in termination of tonic immobility
COc1ccc(C=O)cc1 [Anisaldehyde, anisaldehyde]				1/1	
CC=C(C)C=O [2-methylbutenal]					lowest volume of repellent that terminated tonic immobility [3]: 300 µL; Hd-Syringe Y (termination of tonic immobility), trials of trials [3]: All assays resulted in termination of tonic immobility and four of four and 4/4; Hd-Syringe Y (termination of tonic immobility), trials of trials ([3]; listed as 2-Methylbutenal): 4/4
CCC(C)C=O (stereo not shown) [2-methylbutanal]			5/5		lowest volume of repellent that terminated tonic immobility [3]: 200 µL; Hd-Syringe Y (termination of tonic immobility), trials of trials [3]: In each assay tonic immobility was terminated and five of five and 5/5
CC/C=C/C=O [Trans-pentenal, trans-pentenal]			5/5		Hd-Syringe Y (termination of tonic immobility), trials of trials [3]: 5/5; Hd-Syringe Y (termination of tonic immobility), trials of trials ([3]; listed as Pentenal): 5/5
CCCCC=O [Valeraldehyde, valeraldehyde]			6/6	1/1	Hd-Syringe Y (termination of tonic immobility), trials of trials [3]: 5/5; Micropipette assays with a gustatory response (termination or behavior change) [1, 5]: six of six; also recorded: all Micropipette assays showed a response; Total Y, percent of trials (sharks (species pooled)): 100%; Total (Not including Micropipette assays / Effective Delivery Methods) Y, trials of trials (sharks (species pooled); listed as valeraldehyde): terminated tonic immobility; also recorded: six of six
CC(=O)CCCC(=O)O [4-Acetylbutyric Acid]	2/2	repellents			
CC(C)(C)C=O [Trimethylacetaldehyde, trimethylacetaldehyde]			6/7	1/2	Hd-Syringe Y (termination of tonic immobility), trials of trials [3]: 5/5; Micropipette assays with a behavioral response within tonic immobility [1, 5]: change of behavior during tonic immobility; Total (Not including Micropipette assays / Effective Delivery Methods) N, trials of trials (sharks (species pooled)): 1/7; Total Y, percent of trials (sharks (species pooled)): 100%; Total (Not including Micropipette assays / Effective Delivery Methods) Y, trials of trials (sharks (species pooled); listed as trimethylacetaldehyde): resulted in termination of tonic immobility; Syringe N (no response), trials of trials [2]: 1/2
CC(C)=CC=O [3-methylbutenal]					lowest volume of repellent that terminated tonic immobility [3]: 350 µL; Hd-Syringe Y (termination of tonic immobility), trials of trials [3]: All assays resulted in termination of tonic immobility and four of four and 4/4; Hd-Syringe Y (termination of tonic immobility), trials of trials ([3]; listed as 3-Methylbutenal): 4/4
CCC(C)(C)C(=O)O [2,2-Dimethylbutyric Acid]	2/2	repellents			
O=C(O)CC(CC(=O)O)C(=O)O [Tricarballylic Acid]	2/2				
O=C/C=C/c1ccccc1 [Cinnimaldehyde, trans-cinnimaldehyde]			2/2	2/2	Syringe Y (termination of tonic immobility), trials of trials ([2]; listed as cinnimaldehyde): two of two; Syringe Y (termination of tonic immobility), trials of trials ([2]; listed as trans-cinnimaldehyde): resulted in termination of tonic immobility
CCC(CC)C(=O)O [2-Ethylbutyric Acid]	2/2	repellents			
C=CCC(=O)O [3-Butenoic Acid (vinylacetic acid), 3-Butenoic Acid]	2/2	shark repelling compounds			
CCC(=O)C(=O)O [2-Ketobutyric Acid]	2/2	repellents			
CC(O)C(=O)O (stereo not shown) [lactic acid]					Syringe 3/5/10 N (no response), trials of trials [4]: no behavioral change and 1/3; Syringe 3/5/10 Y (termination of tonic immobility), trials of trials [4]: two of three and 2/3
CC(N)CC(=O)O (stereo not shown) [3-Aminobutyric Acid]	2/2	repellents			
CC(C)C=O [Isobutyraldehyde, isobutyraldehyde]			4/4	4/4	Total Y, percent of trials (sharks (species pooled)): 100%; Syringe Y (termination of tonic immobility), trials of trials ([2]; listed as isobutyraldehyde): All resulted in termination of tonic immobility
